Data from PMC12881670, “Investigation into ligand selectivity and bias at the formyl peptide receptor family” (The Journal of Pharmacology and Experimental Therapeutics, 2025).
Where a SMILES comes first, the peptide text is derived from it. The star is where a group is joined. For = O=C*

Key:
Hs_FPR2 [1] = biological target: T1, Hs_FPR2 (Homo sapiens, UniProt P25090); test: BRET receptor-RLuc8 interaction with Venus-mGsi; assay type: cell-based
T1 construct: expressed in transfected cells
T1 sequence (P25090 1-351): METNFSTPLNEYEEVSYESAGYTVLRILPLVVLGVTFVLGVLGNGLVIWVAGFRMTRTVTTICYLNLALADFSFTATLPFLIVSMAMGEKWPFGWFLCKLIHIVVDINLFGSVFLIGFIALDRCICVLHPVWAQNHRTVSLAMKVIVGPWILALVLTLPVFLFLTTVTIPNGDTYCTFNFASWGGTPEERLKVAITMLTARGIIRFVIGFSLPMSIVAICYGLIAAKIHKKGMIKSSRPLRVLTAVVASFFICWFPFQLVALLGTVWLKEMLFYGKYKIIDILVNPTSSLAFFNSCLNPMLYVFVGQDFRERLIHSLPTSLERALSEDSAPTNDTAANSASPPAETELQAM
Description: (§1) BRET1 assays to measure FPR interaction with Venus-mGsi and Arrestin 3-yellow fluorescent protein (YFP) were performed as previously described.[31]^,[32] Briefly, all FPRs C-terminally fused to Renilla Luciferase (donor, RLuc8) were transiently transfected along with either Venus-mGsi or YFP-Arrestin 3 (acceptor) at a ratio of 1:4. 24 hours post transfection, cells were replated into white-walled, 96-well plates and cultured for a further 24–48 hours. On the day of experimentation, growth media was aspirated and replaced with 80 μl Hanks Buffered Saline Solution and equilibrated for 30 minutes. Coelenterazine h was added to each well to a final concentration of 5 μM for 5 minutes before the addition of each compound, and the plate was incubated for a further 10 minutes at 37 °C before being read on a ClarioStar Plus, with luminescence measured at 480/20 nm (donor) and 530/20 (acceptor). The BRET ratio (acceptor/donor) was determined, and the background (untreated) subtracted to give the N-BRET value.
(§2) All data were analyzed using GraphPad Prism using the nonlinear regression log(agonist) versus response (3 parameters) function for all assays, except binding, which was analyzed using the One site-FitlogIC50 function. Bias calculations were carried out following IUPHAR guidelines as described,[27]^,[37] and data were presented as the Δ Activity ratio (Log[EmaxB/EC50B])-(Log[EmaxA/EC50A]).

Mm_Fpr1 [2] = biological target: T2, Mm_Fpr1 (Mus musculus, UniProt P33766); test: BRET receptor-RLuc8 interaction with Venus-mGsi; assay type: cell-based
T2 construct: expressed in transfected cells
T2 sequence (P33766 1-364): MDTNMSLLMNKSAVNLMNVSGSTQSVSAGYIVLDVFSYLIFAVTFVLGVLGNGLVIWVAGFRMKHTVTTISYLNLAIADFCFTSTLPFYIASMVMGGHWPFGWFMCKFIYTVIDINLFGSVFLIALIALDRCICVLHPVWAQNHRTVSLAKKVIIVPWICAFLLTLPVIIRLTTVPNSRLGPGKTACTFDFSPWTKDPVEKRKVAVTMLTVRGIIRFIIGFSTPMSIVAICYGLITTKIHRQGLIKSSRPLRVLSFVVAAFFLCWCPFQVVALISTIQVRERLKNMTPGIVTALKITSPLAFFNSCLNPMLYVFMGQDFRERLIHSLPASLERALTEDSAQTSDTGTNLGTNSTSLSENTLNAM
Description: as §1, §2

Mm_Fpr2 [3] = biological target: T3, Mm_Fpr2 (Mus musculus, UniProt O88536); test: BRET receptor-RLuc8 interaction with Venus-mGsi; assay type: cell-based
T3 construct: expressed in transfected cells
T3 sequence (O88536 1-351): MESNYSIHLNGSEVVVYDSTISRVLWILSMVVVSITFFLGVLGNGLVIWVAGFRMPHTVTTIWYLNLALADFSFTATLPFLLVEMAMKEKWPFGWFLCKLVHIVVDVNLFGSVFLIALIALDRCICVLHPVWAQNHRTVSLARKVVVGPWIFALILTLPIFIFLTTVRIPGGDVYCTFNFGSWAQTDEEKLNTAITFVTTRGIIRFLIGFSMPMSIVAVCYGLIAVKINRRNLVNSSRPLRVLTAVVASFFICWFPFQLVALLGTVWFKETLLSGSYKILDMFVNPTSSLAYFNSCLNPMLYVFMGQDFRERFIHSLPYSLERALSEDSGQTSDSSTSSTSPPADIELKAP
Description: as §1, §2

Hs_FPR2 [4] = biological target: T1, Hs_FPR2; test: ERK1/2 phosphorylation by Western blotting; assay type: cell-based
Description: (§3) ERK phosphorylation was detected by Western blotting as previously described.[30] Briefly, HEK293 cells stably expressing FLAG-tagged FPRs were plated into 12-well culture plates until 90% confluent. On the day of the experiment, culture media was replaced with serum-free Dulbecco’s modified Eagle’s medium and incubated for 2 hours before stimulation with the indicated compounds. After 7 minutes, the media was removed and stimulation terminated by the addition of 100 μl sample buffer (0.5% SDS, Tris (pH 6.8), glycerol, at >90 °C).
as §2

Mm_Fpr2 [5] = biological target: T3, Mm_Fpr2; test: ERK1/2 phosphorylation by Western blotting; assay type: cell-based
Description: as §3, §2

Hs_FPR2 [6] = biological target: T1, Hs_FPR2; test: BRET receptor-RLuc8 interaction with Arrestin 3-YFP; assay type: cell-based
Description: as §1, §2

Mm_Fpr2 [7] = biological target: T3, Mm_Fpr2; test: as above; assay type: cell-based
Description: as §1, §2

Hs_FPR1 = biological target: T4, Hs_FPR1 (Homo sapiens, UniProt P21462); test: Internalization of FLAG-tagged receptors by flow cytometry; assay type: cell-based; set-up: Emax: dose or concentration left out as unconfirmed; details: Hs_FPR1, 30 min, relative to 1 μM WKYMVm
T4 construct: expressed in transfected cells
T4 sequence (P21462 1-350): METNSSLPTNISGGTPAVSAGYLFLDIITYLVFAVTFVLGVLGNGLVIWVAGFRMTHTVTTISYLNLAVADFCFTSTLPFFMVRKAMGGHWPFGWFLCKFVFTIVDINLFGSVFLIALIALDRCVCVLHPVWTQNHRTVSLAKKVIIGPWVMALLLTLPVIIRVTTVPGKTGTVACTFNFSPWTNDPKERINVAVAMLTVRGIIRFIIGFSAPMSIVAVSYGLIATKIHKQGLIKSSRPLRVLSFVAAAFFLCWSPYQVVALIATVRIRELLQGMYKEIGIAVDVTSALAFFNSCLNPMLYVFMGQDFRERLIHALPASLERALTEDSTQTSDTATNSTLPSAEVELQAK
Description: (§4) Internalization of FPRs was measured by flow cytometry.[30] Briefly, cells were incubated with Alexa Fluor 657 conjugated M1 antiflag antibody (Sigma-Aldrich Cat# F3040, RRID:AB_439712) for 30 minutes at 37 °C to label surface receptors. Cells were then incubated with the indicated concentration of ligand before washing in PBS/0.04% EDTA to remove any remaining surface antibody. Remaining fluorescence was then measured using flow cytometry on either a BD FACScalibur or Attune, recording 5000 gated events. […] As a control, some samples were left untreated, and “strip only” was measured as a readout of constitutive endocytosis, and this value was subtracted from the data.
as §2

Hs_FPR2 [8] = biological target: T1, Hs_FPR2; test: as above; assay type: cell-based; set-up: Emax: dose or concentration left out as unconfirmed
Description: as §4, §2

Mm_Fpr1 [9] = biological target: T2, Mm_Fpr1; test: as above; assay type: cell-based; set-up: Emax: dose or concentration left out as unconfirmed
Description: (§5) Internalization of FPRs was measured by flow cytometry.[30] Briefly, cells were incubated with Alexa Fluor 657 conjugated M1 antiflag antibody (Sigma-Aldrich Cat# F3040, RRID:AB_439712) for 30 minutes at 37 °C to label surface receptors. Cells were then incubated with the indicated concentration of ligand before washing in PBS/0.04% EDTA to remove any remaining surface antibody. Remaining fluorescence was then measured using flow cytometry on either a BD FACScalibur or Attune, recording 5000 gated events. […] As a control, some samples were left untreated, and “strip only” was measured as a readout of constitutive endocytosis, and this value was subtracted from the data. Vehicle control (0.1% DMSO) had no effect on internalization of receptors.
as §2

Mm_Fpr2 [10] = biological target: T3, Mm_Fpr2; test: as above; assay type: cell-based; set-up: Emax: dose or concentration left out as unconfirmed
Description: as §5, §2

[11] = test system: formyl peptide receptor family (Hs_FPR1, Hs_FPR2, Mm_Fpr1, Mm_Fpr2); test: Summary of main findings: receptor subtype selectivity and ligand bias across all readouts; set-up: species or system human and mouse
Description: To determine ligand bias, a reference ligand is required, that is, “balanced” for the pathways tested.[37] […] We then used measurements of the activity ratio (Log (Emax/EC50)) for each receptor, ligand, and pathway in an attempt to observe any ligand bias (Fig. 6).

- Emax (Hs_FPR2 [1]): 44.4%
- Emax (Mm_Fpr1 [2]): -8.19%
- Emax (Mm_Fpr2 [3]): 25%
- Emax (Hs_FPR2 [4]): 93.9%
- Emax (Mm_Fpr2 [5]): 169%
- Emax (Hs_FPR2 [6]): 51.8%
- Emax (Mm_Fpr2 [7]): 12.1%
- Emax (Hs_FPR2 [8]): 63.3%
- Emax (Mm_Fpr1 [9]): 7.39%
- Emax (Mm_Fpr2 [10]): 43.9%
- Bias ([11]; summary grade of ligand bias relative to WKYMVm, key not given): No
- Notes ([11]; summary of main findings, in words): Partial agonist
SMILES: CC[C@H](C)[C@H](NC(=O)[C@H](CC(C)C)NC(=O)[C@H](CCCCN)NC(=O)[C@H](CCSC)NC(=O)[C@H](CC(C)C)NC(=O)[C@@H]1CCCN1C(=O)[C@H](CC(N)=O)NC(=O)[C@@H](NC(=O)[C@H](CCCCN)NC(=O)[C@H](CCCNC(=N)N)NC(=O)[C@H](CCSC)NC(=O)[C@@H]1CCCN1C(=O)[C@@H](NC(=O)[C@H](CCSC)NC=O)[C@@H](C)O)[C@@H](C)CC)C(=O)N[C@@H](CC(N)=O)C(=O)O [MCT-2, Formyl-MTPMRKINPLMKLIN] (For-MTPMRKINPLMKLIN-OH)
- agonist-induced internalization (words) (Hs_FPR1): failed to show appreciable internalization
- agonist-induced internalization (words) (Mm_Fpr1 [9]; Mm_Fpr1, 30 min, relative to 1 μM WKYMVm): failed to show appreciable internalization
